The values below are quoted from earlier work in US20100210653A1, “Novel Compounds, Their Preparations and Use” (HIGH POINT PHARMACEUTICALS, LLC, priority 2004, published 2010).

One data set relates to C2C12 muscle cells. Conditions: in vitro treatment, two publications.
The subject of data set [1] is high fat diet induced insulin resistant mice and diabetic ob/ob. Conditions: PNAS 2003, 100, 15924-15929.

As for `Cc1cc(SCc2sc(-c3ccc(C(F)(F)F)cc3)nc2C)ccc1OCC(=O)O` [GW501516], the “regulation of genes (LPL, ACS4, CTP1, PDK4, UCP1, -2, -3, ABCA1/G1)” value in the data set with C2C12 muscle cells is “regulation of genes involved with TG hydrolysis and FFA oxidation”. Besides, in data set [1], the insulin sensitivity entry was “improved insulin sensitivity”; the “plasma glucose and insulin” value was “lowering of plasma glucose and insulin”.
